Structures are written as SMILES. Toxic doses and inconclusive results are not listed.

For this assay, the system named is CD2F1 mice, L1210 leukemia ip, survival T/C. Put plainly: NCI In Vivo Anticancer Drug Screen. Data for tumor model L1210 Leukemia (intraperitoneal) in CD2F1 (CDF1) mice. The note with it: higher = longer survival. The gist of the method:
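Ratio T/C, where T is the treated-group value and C the vehicle-dosed control value, from mice implanted with a transplantable tumor.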

[1] abbreviates: endpoint: mean survival time, dose: 100.0 mg/kg/injection, schedule: Q01DX001 (ip), vehicle: saline with Tween-80.
Setting [2] is: endpoint: mean survival time, dose: 200.0 mg/kg/injection, schedule: Q01DX001 (ip), vehicle: saline with Tween-80.
Setting [3] is: endpoint: mean survival time, dose: 400.0 mg/kg/injection, schedule: Q01DX001 (ip), vehicle: saline with Tween-80.
Setting [4] is: endpoint: mean survival time, dose: 25.0 mg/kg/injection, schedule: Q01DX009 (ip), vehicle: saline with Tween-80.
Where [5] appears, read: endpoint: mean survival time, dose: 50.0 mg/kg/injection, schedule: Q01DX009 (ip), vehicle: saline with Tween-80.
The mark [6] stands for this setting: endpoint: mean survival time, dose: 100.0 mg/kg/injection, schedule: Q01DX009 (ip), vehicle: saline with Tween-80.
Where [7] appears, read: endpoint: mean survival time, dose: 100.0 mg/kg/injection, schedule: Q04DX003 (ip), vehicle: saline.
[8] abbreviates: endpoint: mean survival time, dose: 200.0 mg/kg/injection, schedule: Q04DX003 (ip), vehicle: saline.
The mark [9] stands for this setting: endpoint: mean survival time, dose: 400.0 mg/kg/injection, schedule: Q04DX003 (ip), vehicle: saline.
The mark [10] stands for this setting: endpoint: mean survival time, dose: 100.0 mg/kg/injection, schedule: Q04DX003 (ip), vehicle: saline with Tween-80.
The mark [11] stands for this setting: endpoint: mean survival time, dose: 200.0 mg/kg/injection, schedule: Q01DX009 (ip), vehicle: saline with Tween-80.
The mark [12] stands for this setting: endpoint: mean survival time, dose: 200.0 mg/kg/injection, schedule: Q04DX003 (ip), vehicle: saline with Tween-80.
Setting [13] is: endpoint: mean survival time, dose: 100.0 mg/kg/injection, schedule: Q04DX002 (ip), vehicle: saline with Tween-80.
The mark [14] stands for this setting: endpoint: mean survival time, dose: 200.0 mg/kg/injection, schedule: Q04DX002 (ip), vehicle: saline with Tween-80.
The mark [15] stands for this setting: endpoint: mean survival time, dose: 400.0 mg/kg/injection, schedule: Q04DX002 (ip), vehicle: saline with Tween-80.

As for `O=C1C(=O)c2cccnc2C(NC2CC3CCC2C3)=C1Cl` (stereo not drawn), the T/C is 95 % of control (endpoint: mean survival time, dose: 75.0 mg/kg/injection, schedule: Q04DX003 (ip), vehicle: saline); 98 % of control (endpoint: mean survival time, dose: 150.0 mg/kg/injection, schedule: Q04DX003 (ip), vehicle: saline); 97 % of control (endpoint: mean survival time, dose: 300.0 mg/kg/injection, schedule: Q04DX003 (ip), vehicle: saline).
Consider `O=S(=O)(Cc1ccccc1)CS(=O)(=O)Cc1ccccc1`, for which the T/C under setting [1] was 98 % of control, the T/C under setting [2] was 97 % of control and the T/C under setting [3] was 86 % of control.
Consider `OCc1ccc(O)cc1`, for which the T/C (endpoint: mean survival time, dose: 100.0 mg/kg/injection, schedule: Q04DX003 (ip), vehicle: other) was 100 % of control; the T/C (endpoint: mean survival time, dose: 200.0 mg/kg/injection, schedule: Q04DX003 (ip), vehicle: other) was 95 % of control; the T/C (endpoint: mean survival time, dose: 400.0 mg/kg/injection, schedule: Q04DX003 (ip), vehicle: other) was 94 % of control.
`CN(C)CCSCC(OC(=O)c1ccccc1)c1ccccc1` (stereo not drawn): the T/C was 102 % of control under setting [4], 98 % of control under setting [5] and 100 % of control under setting [6].
Take `C[N+](C)(C)CCS(=O)(=O)[O-]`: the T/C reads like this: under setting [7], 102 % of control; under setting [8], 100 % of control; under setting [9], 100 % of control.
Turning to `CCOC(=O)C(C)Sc1nn(C2OC(COC(=O)c3ccccc3)C(OC(=O)c3ccccc3)C2OC(=O)c2ccccc2)c(=O)[nH]c1=O` (stereo not drawn), the T/C runs as follows: (endpoint: mean survival time, dose: 12.5 mg/kg/injection, schedule: Q01DX005 (ip), vehicle: distilled water + Tween-80) 97 % of control; (endpoint: mean survival time, dose: 25.0 mg/kg/injection, schedule: Q01DX005 (ip), vehicle: distilled water + Tween-80) 97 % of control; (endpoint: mean survival time, dose: 50.0 mg/kg/injection, schedule: Q01DX005 (ip), vehicle: distilled water + Tween-80) 95 % of control; (endpoint: mean survival time, dose: 100.0 mg/kg/injection, schedule: Q01DX005 (ip), vehicle: distilled water + Tween-80) 95 % of control; (endpoint: mean survival time, dose: 200.0 mg/kg/injection, schedule: Q01DX005 (ip), vehicle: distilled water + Tween-80) 89 % of control.
With `O=c1nc(N2CCCC2)ccn1C1OC(CO)C(O)C1O` (stereo not drawn), the T/C is, setting by setting: (endpoint: median survival time, dose: 12.5 mg/kg/injection, schedule: Q01DX005 (ip), vehicle: water) 100 % of control; (endpoint: median survival time, dose: 25.0 mg/kg/injection, schedule: Q01DX005 (ip), vehicle: water) 101 % of control; (endpoint: median survival time, dose: 50.0 mg/kg/injection, schedule: Q01DX005 (ip), vehicle: water) 108 % of control; (endpoint: median survival time, dose: 100.0 mg/kg/injection, schedule: Q01DX005 (ip), vehicle: water) 101 % of control; (endpoint: median survival time, dose: 200.0 mg/kg/injection, schedule: Q01DX005 (ip), vehicle: water) 104 % of control.
For the molecule `COc1cc(C[C@@H]2COC(=O)[C@]2(O)Cc2ccc(O)c(OC)c2)ccc1O`, the T/C is 106 % of control (endpoint: mean survival time, dose: 1.0 mg/kg/injection, schedule: Q01DX009 (ip), vehicle: saline + alcohol); 104 % of control (endpoint: mean survival time, dose: 2.0 mg/kg/injection, schedule: Q01DX009 (ip), vehicle: saline + alcohol); 106 % of control (endpoint: mean survival time, dose: 4.0 mg/kg/injection, schedule: Q01DX009 (ip), vehicle: saline + alcohol); 103 % of control (endpoint: mean survival time, dose: 8.0 mg/kg/injection, schedule: Q01DX009 (ip), vehicle: saline + alcohol); 101 % of control (endpoint: mean survival time, dose: 16.0 mg/kg/injection, schedule: Q01DX009 (ip), vehicle: saline + alcohol).
For the molecule `COc1cc(Cl)ccc1NC(=O)Nc1ccc(CCO)cc1`, the T/C reads like this: under setting [5], 93 % of control; under setting [6], 93 % of control.
In the case of `C/C(=N\NC(N)=O)C(F)(F)F`, the T/C was 101 % of control under setting [5]; 102 % of control under setting [6]; 97 % of control under setting [10]; 102 % of control under setting [11]; 108 % of control under setting [12].
Regarding `COC(/C=C\C(OC)OC)OC`, the T/C reads like this: (endpoint: mean survival time, dose: 12.5 mg/kg/injection, schedule: Q01DX009 (ip), vehicle: saline) 101 % of control; (endpoint: mean survival time, dose: 25.0 mg/kg/injection, schedule: Q01DX009 (ip), vehicle: saline) 96 % of control.
As for `CC1C(=O)OC(C)(C)C1(C)C` (stereo not drawn), the T/C under setting [4] was 98 % of control, the T/C under setting [5] is 98 % of control and the T/C under setting [10] is 104 % of control.
Regarding `CO/C=C1\Cc2cc(OC)c(OC)cc2C1=O`, the T/C was 100 % of control under setting [10]; 94 % of control under setting [12]; 102 % of control (endpoint: mean survival time, dose: 400.0 mg/kg/injection, schedule: Q04DX003 (ip), vehicle: saline with Tween-80).
Consider `O=C(CCCN1CCC2(CC1)CC(=O)N(N1CCCC1)C2=O)c1ccc(F)cc1`, for which the T/C runs as follows: under setting [1], 108 % of control; under setting [2], 116 % of control; under setting [3], 116 % of control.
For the molecule `CCCCc1ccc2nc(NC(=O)OC)[nH]c2c1`, the T/C is 107 % of control (endpoint: mean survival time, dose: 6.25 mg/kg/injection, schedule: Q01DX009 (ip), vehicle: saline with Tween-80); 113 % of control (endpoint: mean survival time, dose: 12.5 mg/kg/injection, schedule: Q01DX009 (ip), vehicle: saline with Tween-80); 166 % of control under setting [6]; 86 % of control under setting [11].
Consider `CCCN1C(=O)C2C3CCC(O3)C2C1=O` (stereo not drawn), for which the T/C under setting [13] is 95 % of control, the T/C under setting [14] is 106 % of control and the T/C under setting [15] is 102 % of control.
In the case of `Cc1cc(=O)[nH]c(-c2ccccc2)c1C(=O)O`, the T/C runs as follows: under setting [13], 95 % of control; under setting [14], 95 % of control; under setting [15], 95 % of control.
Consider `C/C(=C\C(=O)C(C)(C)C)C(C)(C)C`, for which the T/C is 93 % of control under setting [1], 96 % of control under setting [2] and 96 % of control under setting [3].
For the molecule `Oc1ccccc1C1=CCCCCC1`, the T/C under setting [7] is 95 % of control, the T/C under setting [8] was 101 % of control and the T/C under setting [9] is 104 % of control.
Turning to `CN1CCN(CCSSCCN2CCN(C)CC2)CC1`, the T/C (endpoint: mean survival time, dose: 50.0 mg/kg/injection, schedule: Q01DX009 (ip), vehicle: saline sonified) is 97 % of control; the T/C (endpoint: mean survival time, dose: 100.0 mg/kg/injection, schedule: Q01DX009 (ip), vehicle: saline sonified) was 97 % of control; the T/C under setting [10] is 105 % of control; the T/C (endpoint: mean survival time, dose: 200.0 mg/kg/injection, schedule: Q01DX009 (ip), vehicle: saline sonified) is 98 % of control; the T/C under setting [12] was 100 % of control.
On to `O=C1c2ccccc2C(=O)c2c(NC3CCCCC3)ccc(Nc3ccc(S(=O)(=O)O)cc3)c21`, for which the T/C is 100 % of control (endpoint: mean survival time, dose: 75.0 mg/kg/injection, schedule: Q01DX001 (ip), vehicle: saline); 100 % of control (endpoint: mean survival time, dose: 150.0 mg/kg/injection, schedule: Q01DX001 (ip), vehicle: saline); 103 % of control (endpoint: mean survival time, dose: 300.0 mg/kg/injection, schedule: Q01DX001 (ip), vehicle: saline).
As to `CC(C#N)(Nc1ccccc1)c1ccco1` (stereo not drawn), the T/C was 102 % of control (endpoint: mean survival time, dose: 6.25 mg/kg/injection, schedule: Q01DX009 (ip), vehicle: other); 94 % of control (endpoint: mean survival time, dose: 6.25 mg/kg/injection, schedule: Q04DX003 (ip), vehicle: other); 100 % of control (endpoint: mean survival time, dose: 12.5 mg/kg/injection, schedule: Q01DX009 (ip), vehicle: other); 95 % of control (endpoint: mean survival time, dose: 12.5 mg/kg/injection, schedule: Q04DX003 (ip), vehicle: other); 94 % of control (endpoint: mean survival time, dose: 25.0 mg/kg/injection, schedule: Q01DX009 (ip), vehicle: other); 106 % of control (endpoint: mean survival time, dose: 25.0 mg/kg/injection, schedule: Q04DX003 (ip), vehicle: other). The T/C by setting is: (endpoint: mean survival time, dose: 100.0 mg/kg/injection, schedule: Q01DX009 (ip), vehicle: other) 90 % of control; under setting [7], 103 % of control; (endpoint: mean survival time, dose: 200.0 mg/kg/injection, schedule: Q01DX009 (ip), vehicle: other) 94 % of control; under setting [8], 101 % of control; under setting [9], 94 % of control.

The values are drawn from PubChem BioAssay AID256 (DTP/NCI, 2004).
